Laboratory results from PMC7587356, “High-Throughput Screening for Inhibitors of the SARS-CoV-2 Protease Using a FRET-Biosensor” (Molecules, 2020).
Where a name gives a salt, the structure may show the parent alone. Read-outs that look alike come from different tables or passages of the source.

Molecular target: SARS-CoV-2 3CLpro (Severe acute respiratory syndrome coronavirus 2, UniProt P0DTD1)
Test: biochemical
Assay type: biochemical
Design: Replicate_1 / Replicate_2 / mean / mean (LOPAC_screen_w_protease): unit not given here
Conditions: for inhibition at 5 µM: 4 h
[1] = sheet LOPAC_screen_w_protease, LOPAC1280 at 5 µM, mean of two replicates
[2] = sheet LOPAC_screen_w_protease, LOPAC1280 at 5 µM, replicate 1
[3] = sheet LOPAC_screen_w_protease, LOPAC1280 at 5 µM, replicate 2
[4] = sheet LOPAC_screen_w_protease, primary screen with protease, mean of two replicates
[5] = sheet LOPAC_screen_w_protease, primary screen with protease, replicate 1
[6] = sheet LOPAC_screen_w_protease, primary screen with protease, replicate 2
[7] = sheet LOPAC_screen_w_protease, primary screen at 5 µM, mean of two replicates
[8] = sheet LOPAC_screen_w_protease, primary screen at 5 µM, replicate 1
[9] = sheet LOPAC_screen_w_protease, primary screen at 5 µM, replicate 2
[10] = sheet LOPAC_screen_w_protease, LOPAC1280 primary screen with protease, 5 µM compound, mean of the two replicates
[11] = sheet LOPAC_screen_w_protease, LOPAC1280 primary screen with protease, 5 µM compound, replicate 1
[12] = sheet LOPAC_screen_w_protease, LOPAC1280 primary screen with protease, 5 µM compound, replicate 2
[13] = sheet LOPAC_screen_w_protease, primary screen of LOPAC1280 at 5 µM with protease, mean of the two replicates
[14] = sheet LOPAC_screen_w_protease, primary screen of LOPAC1280 at 5 µM with protease, replicate 1
[15] = sheet LOPAC_screen_w_protease, primary screen of LOPAC1280 at 5 µM with protease, replicate 2
[16] = sheet LOPAC_screen_w_protease, primary screen of LOPAC1280 at 5 µM with protease, mean of the two replicates, read-out: mean
[17] = sheet LOPAC_screen_w_protease, primary screen of LOPAC1280 at 5 µM with protease, replicate 1, read-out: Replicate_1
[18] = sheet LOPAC_screen_w_protease, primary screen of LOPAC1280 at 5 µM with protease, replicate 2, read-out: Replicate_2
[19] = sheet LOPAC_screen_w_protease, LOPAC1280 primary screen with protease, 5 µM compound, mean of the two replicates, read-out: mean
[20] = sheet LOPAC_screen_w_protease, LOPAC1280 primary screen with protease, 5 µM compound, replicate 1, read-out: Replicate_1
[21] = sheet LOPAC_screen_w_protease, LOPAC1280 primary screen with protease, 5 µM compound, replicate 2, read-out: Replicate_2

SMILES: O=C(O)c1ccccc1Nc1ccccc1 [N-Phenylanthranilic acid]
- inhibition at 5 µM (sheet LOPAC_screen_w_protease, primary screen with protease, 5 µM, mean of two replicates, read-out: mean): 0.157%
- inhibition at 5 µM (sheet LOPAC_screen_w_protease, primary screen with protease, 5 µM, replicate 1, read-out: Replicate_1): 0.635%
- inhibition at 5 µM (sheet LOPAC_screen_w_protease, primary screen with protease, 5 µM, replicate 2, read-out: Replicate_2): -0.322%

SMILES: O=C(O)CCC(=O)N1CCC[C@H]1C(=O)O [N-Succinyl-L-proline]
- mean (sheet LOPAC_screen_w_protease, LOPAC1280 primary screen at 5 µM, with protease, mean of two replicates): -1.024
- Replicate_1 (sheet LOPAC_screen_w_protease, LOPAC1280 primary screen at 5 µM, with protease, replicate 1): 1.826
- Replicate_2 (sheet LOPAC_screen_w_protease, LOPAC1280 primary screen at 5 µM, with protease, replicate 2): -3.873

SMILES: CCCCC/C=C\C/C=C\C/C=C\C/C=C\CCCC(=O)NCC(=O)O [N-arachidonylglycine]
- mean (sheet LOPAC_screen_w_protease, primary screen with protease, 5 µM, mean of two replicates): 0.3785
- Replicate_1 (sheet LOPAC_screen_w_protease, primary screen with protease, 5 µM, replicate 1): 1.728
- Replicate_2 (sheet LOPAC_screen_w_protease, primary screen with protease, 5 µM, replicate 2): -0.9708

SMILES: NC(=O)C1=CN([C@@H]2O[C@H](COP(=O)([O-])OP(=O)([O-])OC[C@H]3O[C@@H](n4cnc5c(N)ncnc54)[C@H](OP(=O)([O-])[O-])[C@@H]3O)[C@@H](O)[C@H]2O)C=CC1.[Na+].[Na+].[Na+].[Na+] [NADPH tetrasodium]
- mean [1]: 1.2074
- Replicate_1 [2]: 1.812
- Replicate_2 [3]: 0.6031

SMILES: Br.COc1ccccc1N1CCN(CCCCN2C(=O)c3ccccc3C2=O)CC1 [NAN-190 hydrobromide]
- mean (LOPAC_screen_w_protease) (LOPAC1280 primary screen with protease, 5 µM compound, mean of the two replicates): 1.999
- Replicate_1 (LOPAC_screen_w_protease) (LOPAC1280 primary screen with protease, 5 µM compound, replicate 1): 4.031
- Replicate_2 (LOPAC_screen_w_protease) (LOPAC1280 primary screen with protease, 5 µM compound, replicate 2): -0.03323

SMILES: CCCN(CC1CC1)c1nc(C)nc(Nc2c(Cl)cc(Cl)cc2Cl)c1Cl [NBI 27914]
- mean [4]: 2.264
- Replicate_1 [5]: 4.203
- Replicate_2 [6]: 0.3255

SMILES: NS(=O)(=O)c1cccc2c1c([N+](=O)[O-])cc1nc([O-])c([O-])nc12.[Na+].[Na+] [NBQX disodium]
- mean (LOPAC screen with protease) [7]: 8.586
- Replicate_1 (LOPAC screen with protease) [8]: 5.7201
- Replicate_2 (LOPAC screen with protease) [9]: 11.4514

SMILES: O=C(O)/C=C1\CCCc2ccccc2C1O (stereo not drawn) [NCS-382]
- mean [10]: 5.8931
- Replicate_1 [11]: 5.187
- Replicate_2 [12]: 6.599

SMILES: O=C(Nc1cc(C(=O)Nc2ccc(S(=O)(=O)[O-])cc2S(=O)(=O)[O-])cc(C(=O)Nc2ccc(S(=O)(=O)[O-])cc2S(=O)(=O)[O-])c1)Nc1cc(C(=O)Nc2ccc(S(=O)(=O)[O-])cc2S(=O)(=O)[O-])cc(C(=O)Nc2ccc(S(=O)(=O)[O-])cc2S(=O)(=O)[O-])c1.[Na+].[Na+].[Na+].[Na+].[Na+].[Na+].[Na+].[Na+] [NF449 octasodium salt]
- mean [13]: 4.044
- Replicate_1 [14]: 4.589
- Replicate_2 [15]: 3.499

SMILES: O=C(Nc1cccc(C(=O)Nc2ccc(S(=O)(=O)O)c3cc(S(=O)(=O)O)cc(S(=O)(=O)O)c23)c1)Nc1cccc(C(=O)Nc2ccc(S(=O)(=O)O)c3cc(S(=O)(=O)O)cc(S(=O)(=O)O)c23)c1 [NF 023, reference compound]
- mean [10]: 6.11
- Replicate_1 [11]: 5.845
- Replicate_2 [12]: 6.375

SMILES: CC(=O)O.NC(=NCCC[C@H](N)C(=O)O)NO [NG-Hydroxy-L-arginine acetate]
- mean [4]: 2.232
- Replicate_1 [5]: 2.489
- Replicate_2 [6]: 1.975

SMILES: N=C(NCCC[C@H](N)C(=O)O)N[N+](=O)[O-] [NG-Nitro-L-arginine]
- inhibition at 5 µM [16]: 3.68%
- inhibition at 5 µM [17]: 2.33%
- inhibition at 5 µM [18]: 5.04%

SMILES: Cl.O=C(O)C1=CCCN(CCON=C(c2ccccc2)c2ccccc2)C1 [NO-711 hydrochloride]
- Replicate_1: 1.057
- Replicate_2: -0.5134
- mean: 0.272

SMILES: CCCCN1CCC(n2c(=O)[nH]c3ccccc32)CC1.O=C(O)C(=O)O [NS 521 oxalate]
- mean [13]: 3.504
- Replicate_1 [14]: 2.6467
- Replicate_2 [15]: 4.361

SMILES: O=c1onc2n1-c1cc(Br)ccc1OC2 [NS 2028]
- Replicate_1: 5.339
- Replicate_2: 3.612
- mean: 4.476

SMILES: O=c1[nH]c2cc(C(F)(F)F)ccc2n1-c1cc(C(F)(F)F)ccc1O [NS-1619]
- mean (LOPAC screen with protease) [7]: 7.54
- Replicate_1 (LOPAC screen with protease) [8]: 6.544
- Replicate_2 (LOPAC screen with protease) [9]: 8.536

SMILES: CN(C)C(N)=NCCC[C@H](N)C(=O)O.Cl [N^G,N^G-Dimethylarginine hydrochloride]
- mean [1]: 0.9307
- Replicate_1 [2]: 2.142
- Replicate_2 [3]: -0.2808

SMILES: COc1ccccc1N1CCN(CC(O)COc2cccc3ccccc23)CC1.Cl.Cl (stereo not drawn) [Naftopidil dihydrochloride]
- mean [10]: 6.057
- Replicate_1 [11]: 7.362
- Replicate_2 [12]: 4.753

SMILES: Oc1ccc2c3c1O[C@H]1[C@@H](O)CC[C@@]4(O)[C@@H](C2)N(CC2CCC2)CC[C@]314 [Nalbuphine hydrochloride]
- inhibition at 5 µM (read-out: Replicate_1): 4.1%
- inhibition at 5 µM (read-out: Replicate_2): 4.27%
- inhibition at 5 µM (read-out: mean): 4.19%

SMILES: CCn1cc(C(=O)[O-])c(=O)c2ccc(C)nc21.[Na+] [Nalidixic acid sodium]
- mean [10]: 4.611
- Replicate_1 [11]: 4.1091
- Replicate_2 [12]: 5.113

SMILES: C=CCN1CC[C@]23c4c5ccc(O)c4O[C@@H]2/C(=N/N=C2\CC[C@@]4(O)C6Cc7ccc(O)c8c7[C@@]4(CCN6CC=C)[C@@H]2O8)CC[C@@]3(O)C1C5.Cl.Cl [Naloxonazine dihydrochloride]
- mean (LOPAC screen with protease) [7]: 7.252
- Replicate_1 (LOPAC screen with protease) [8]: 6.395
- Replicate_2 (LOPAC screen with protease) [9]: 8.109

SMILES: C=CCN1CC[C@]23c4c5ccc(O)c4O[C@H]2/C(=N/NC(=O)c2ccccc2)CC[C@@]3(O)[C@H]1C5 [Naloxone benzoylhydrazone]
- inhibition at 5 µM (read-out: Replicate_1): 2.85%
- inhibition at 5 µM (read-out: Replicate_2): 4.95%
- inhibition at 5 µM (read-out: mean): 3.9%

SMILES: C=CCN1CC[C@]23c4c5ccc(O)c4O[C@H]2C(=O)CC[C@@]3(O)[C@H]1C5 [Naloxone hydrochloride]
- inhibition at 5 µM [16]: 4%
- inhibition at 5 µM [17]: 3.91%
- inhibition at 5 µM [18]: 4.09%

SMILES: Oc1ccc2c3c1O[C@H]1c4oc5ccccc5c4C[C@@]4(O)[C@@H](C2)N(CC2CC2)CC[C@]314 [Naltriben methanesulfonate]
- inhibition at 5 µM (read-out: Replicate_1): 4.4%
- inhibition at 5 µM (read-out: Replicate_2): 3%
- inhibition at 5 µM (read-out: mean): 3.7%

SMILES: Oc1ccc2c3c1O[C@H]1c4[nH]c5ccccc5c4C[C@@]4(O)[C@@H](C2)N(CC2CC2)CC[C@]314 [Naltrindole hydrochloride]
- inhibition at 5 µM (read-out: Replicate_1): 3.59%
- inhibition at 5 µM (read-out: Replicate_2): 2.54%
- inhibition at 5 µM (read-out: mean): 3.06%

SMILES: c1ccc2c(CC3=NCCN3)cccc2c1 [Naphazoline hydrochloride]
- inhibition at 5 µM [19]: 4.49%
- inhibition at 5 µM [20]: 4.4%
- inhibition at 5 µM [21]: 4.59%

SMILES: CN(C)C(=O)Oc1cccc([N+](C)(C)C)c1 [Neostigmine bromide]
- inhibition at 5 µM [19]: 5.51%
- inhibition at 5 µM [20]: 4.9%
- inhibition at 5 µM [21]: 6.13%

SMILES: O=C(CCNNC(=O)c1ccncc1)NCc1ccccc1 [Nialamide]
- inhibition at 5 µM [16]: 3.19%
- inhibition at 5 µM [17]: 4.27%
- inhibition at 5 µM [18]: 2.12%

SMILES: COC(=O)C1=C(C)NC(C)=C(C(=O)OCCN(C)Cc2ccccc2)C1c1cccc([N+](=O)[O-])c1 (stereo not drawn) [Nicardipine hydrochloride]
- inhibition at 5 µM (sheet LOPAC_screen_w_protease, primary screen with protease, compound at 5 µM, mean of two replicates, read-out: mean): 2.73%
- inhibition at 5 µM (sheet LOPAC_screen_w_protease, primary screen with protease, compound at 5 µM, replicate 1, read-out: Replicate_1): 2.03%
- inhibition at 5 µM (sheet LOPAC_screen_w_protease, primary screen with protease, compound at 5 µM, replicate 2, read-out: Replicate_2): 3.42%

SMILES: O=C(Nc1ccc([N+](=O)[O-])cc1Cl)c1cc(Cl)ccc1O [Niclosamide]
- inhibition at 5 µM (read-out: Replicate_1): 5.53%
- inhibition at 5 µM (read-out: Replicate_2): 4%
- inhibition at 5 µM (read-out: mean): 4.76%

SMILES: COC(=O)C1=C(C)NC(C)=C(C(=O)OC)C1c1ccccc1[N+](=O)[O-] [Nifedipine]
- inhibition at 5 µM (sheet LOPAC_screen_w_protease, primary screen at 5 µM, mean of two replicates, read-out: mean (LOPAC screen with protease)): 14.6%
- inhibition at 5 µM (sheet LOPAC_screen_w_protease, primary screen at 5 µM, replicate 1, read-out: Replicate_1 (LOPAC screen with protease)): 13.8%
- inhibition at 5 µM (sheet LOPAC_screen_w_protease, primary screen at 5 µM, replicate 2, read-out: Replicate_2 (LOPAC screen with protease)): 15.5%

SMILES: O=C(O)c1cccnc1Nc1cccc(C(F)(F)F)c1 [Niflumic acid]
- inhibition at 5 µM [19]: 4.95%
- inhibition at 5 µM [20]: 4.76%
- inhibition at 5 µM [21]: 5.13%
